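How tested: cells in 96-well plates exposed to compound for 48 hours at five concentrations. At the GI50, growth is halved.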 Active and inactive are the calls of the source. No stated cut-off is given here; in the data, active = GI50 up to about 1.1 µM and inactive = higher.
Assays:
Assay in all cases: NCI-60 cell line screen, 48 h
OVCAR-5 = test system: OVCAR-5
HOP-62 = test system: HOP-62
PC-3 = test system: PC-3
Hs-578T = test system: Hs-578T
MDA-MB-231 = test system: MDA-MB-231
M14 = test system: M14
SN12C = test system: SN12C
SF-539 = test system: SF-539
A498 = test system: A498
OVCAR-4 = test system: OVCAR-4
OVCAR-3 = test system: OVCAR-3
SW-620 = test system: SW-620
SF-268 = test system: SF-268
MDA-MB-435 = test system: MDA-MB-435
SNB-75 = test system: SNB-75
OVCAR-8 = test system: OVCAR-8
UACC-257 = test system: UACC-257
EKVX = test system: EKVX
HCT-15 = test system: HCT-15
SR = test system: SR

Row | Compound | GI50 (OVCAR-5) | GI50 (HOP-62) | GI50 (PC-3) | GI50 (Hs-578T) | GI50 (MDA-MB-231) | GI50 (M14) | GI50 (SN12C) | GI50 (SF-539) | GI50 (A498) | GI50 (OVCAR-4) | GI50 (OVCAR-3) | GI50 (SW-620) | GI50 (SF-268) | GI50 (MDA-MB-435) | GI50 (SNB-75) | GI50 (OVCAR-8) | GI50 (UACC-257) | GI50 (EKVX) | GI50 (HCT-15) [µM] | GI50 (SR)
1 | CC1C2CC(CC(=O)N2)C1(C)C (stereo not drawn) | > 100 µM (inactive) | > 100 µM (inactive) | > 100 µM (inactive) | > 100 µM (inactive) | > 100 µM (inactive) | > 100 µM (inactive) | > 100 µM (inactive) | > 100 µM (inactive) | > 100 µM (inactive) | > 100 µM (inactive) | > 100 µM (inactive) | > 100 µM (inactive) | > 100 µM (inactive) | > 100 µM (inactive) | > 100 µM (inactive) | > 100 µM (inactive) | > 100 µM (inactive) | > 100 µM (inactive) | – | –
2 | CC1(Cc2cc3c(cc2C2(c4ccc([N+](=O)[O-])cc4)OCCO2)OCO3)OCCO1 | > 100 µM (inactive) | > 100 µM (inactive) | 47.2 µM (inactive) | 71.1 µM (inactive) | 52.6 µM (inactive) | > 100 µM (inactive) | > 100 µM (inactive) | > 100 µM (inactive) | > 100 µM (inactive) | 50.2 µM (inactive) | 69.2 µM (inactive) | > 100 µM (inactive) | > 100 µM (inactive) | 98.2 µM (inactive) | – | 59.2 µM (inactive) | 90.4 µM (inactive) | > 100 µM (inactive) | 51.1 | –
3 | COc1cc(/C=C/c2ccccn2)cc(OC)c1OC | > 10 µM (inactive) | > 10 µM (inactive) | > 10 µM (inactive) | > 10 µM (inactive) | > 10 µM (inactive) | > 10 µM (inactive) | > 10 µM (inactive) | > 10 µM (inactive) | > 10 µM (inactive) | > 10 µM (inactive) | > 10 µM (inactive) | > 10 µM (inactive) | > 10 µM (inactive) | > 10 µM (inactive) | 7.78 µM (inactive) | > 10 µM (inactive) | > 10 µM (inactive) | > 10 µM (inactive) | > 10 | –
4 | COc1cc([N+](=O)[O-])c(OC)c2c(Nc3ccc(S(=O)(=O)O)c4cc(S(=O)(=O)O)cc(S(=O)(=O)O)c34)cc(C)nc12 | > 100 µM (inactive) | > 100 µM (inactive) | > 100 µM (inactive) | > 100 µM (inactive) | > 100 µM (inactive) | > 100 µM (inactive) | > 100 µM (inactive) | > 100 µM (inactive) | > 100 µM (inactive) | – | > 100 µM (inactive) | > 100 µM (inactive) | > 100 µM (inactive) | > 100 µM (inactive) | > 100 µM (inactive) | > 100 µM (inactive) | > 100 µM (inactive) | > 100 µM (inactive) | – | –
5 | NNC(=O)c1nnn(N)c1S | > 100 µM (inactive) | > 100 µM (inactive) | > 100 µM (inactive) | > 100 µM (inactive) | 45.4 µM (inactive) | > 100 µM (inactive) | > 100 µM (inactive) | > 100 µM (inactive) | > 100 µM (inactive) | > 100 µM (inactive) | > 100 µM (inactive) | > 100 µM (inactive) | > 100 µM (inactive) | > 100 µM (inactive) | > 100 µM (inactive) | > 100 µM (inactive) | > 100 µM (inactive) | > 100 µM (inactive) | > 100 | –
6 | COc1ccc2c3c1O[C@H]1C(O)CCC4(O)[C@@H](C2)NCC[C@]314 (stereo partly drawn) | > 100 µM (inactive) | > 100 µM (inactive) | > 100 µM (inactive) | > 100 µM (inactive) | > 100 µM (inactive) | > 100 µM (inactive) | > 100 µM (inactive) | > 100 µM (inactive) | > 100 µM (inactive) | > 100 µM (inactive) | > 100 µM (inactive) | > 100 µM (inactive) | > 100 µM (inactive) | > 100 µM (inactive) | – | > 100 µM (inactive) | > 100 µM (inactive) | > 100 µM (inactive) | > 100 | > 100 µM (inactive)
7 | Cc1cc(S(=O)(=O)N/C(=C(\C#N)C(=O)c2ccccc2)[n+]2ccc(N(C)C)cc2)c([S-])cc1Cl | > 100 µM (inactive) | > 100 µM (inactive) | > 100 µM (inactive) | > 100 µM (inactive) | > 100 µM (inactive) | > 100 µM (inactive) | > 100 µM (inactive) | > 100 µM (inactive) | 32.4 µM (inactive) | 69.8 µM (inactive) | > 100 µM (inactive) | – | > 100 µM (inactive) | > 100 µM (inactive) | – | > 100 µM (inactive) | > 100 µM (inactive) | 32 µM (inactive) | > 100 | 64.9 µM (inactive)
8 | CSC(SC)=C1C(=O)NN=C1C | > 100 µM (inactive) | > 100 µM (inactive) | > 100 µM (inactive) | > 100 µM (inactive) | > 100 µM (inactive) | > 100 µM (inactive) | > 100 µM (inactive) | > 100 µM (inactive) | – | > 100 µM (inactive) | > 100 µM (inactive) | > 100 µM (inactive) | > 100 µM (inactive) | > 100 µM (inactive) | – | – | > 100 µM (inactive) | > 100 µM (inactive) | > 100 | > 100 µM (inactive)
9 | COc1ccccc1OCC(=N/NC(=O)c1ccncc1)/N=C/c1cccnc1 | > 100 µM (inactive) | > 100 µM (inactive) | > 100 µM (inactive) | > 100 µM (inactive) | > 100 µM (inactive) | > 100 µM (inactive) | – | > 100 µM (inactive) | > 100 µM (inactive) | > 100 µM (inactive) | > 100 µM (inactive) | > 100 µM (inactive) | > 100 µM (inactive) | > 100 µM (inactive) | 36.5 µM (inactive) | > 100 µM (inactive) | > 100 µM (inactive) | > 100 µM (inactive) | > 100 | –
10 | NC(Cc1ccc(B(O)O)cc1)C(=O)NC(CO)CO (stereo not drawn) | > 100 µM (inactive) | > 100 µM (inactive) | > 100 µM (inactive) | > 100 µM (inactive) | > 100 µM (inactive) | > 100 µM (inactive) | > 100 µM (inactive) | > 100 µM (inactive) | – | > 100 µM (inactive) | > 100 µM (inactive) | > 100 µM (inactive) | > 100 µM (inactive) | > 100 µM (inactive) | > 100 µM (inactive) | > 100 µM (inactive) | > 100 µM (inactive) | > 100 µM (inactive) | > 100 | > 100 µM (inactive)
11 | CC(C(=O)c1ccncc1)c1ccccn1 (stereo not drawn) | > 100 µM (inactive) | > 100 µM (inactive) | > 100 µM (inactive) | > 100 µM (inactive) | > 100 µM (inactive) | > 100 µM (inactive) | > 100 µM (inactive) | – | > 100 µM (inactive) | > 100 µM (inactive) | > 100 µM (inactive) | > 100 µM (inactive) | > 100 µM (inactive) | > 100 µM (inactive) | – | > 100 µM (inactive) | > 100 µM (inactive) | > 100 µM (inactive) | > 100 | –
12 | NCCNCCCCCCNC(=O)c1cccc2cc3ccccc3nc12 | 4.02 µM (inactive) | 2 µM (inactive) | 2.99 µM (inactive) | 1.88 µM (inactive) | 2.34 µM (inactive) | 1.92 µM (inactive) | 2.42 µM (inactive) | 1.93 µM (inactive) | 2.43 µM (inactive) | 2.02 µM (inactive) | 2.51 µM (inactive) | 1.49 µM (inactive) | 2.72 µM (inactive) | 3.59 µM (inactive) | 3.94 µM (inactive) | 2.03 µM (inactive) | 6.1 µM (inactive) | 8.59 µM (inactive) | 12.6 | –
13 | Nc1nc(Cl)c(N)c(NCC2(CO)CCC(CCc3ccccc3)C2)n1 (stereo not drawn) | 20.9 µM (inactive) | 17 µM (inactive) | 17.3 µM (inactive) | 21.1 µM (inactive) | 17 µM (inactive) | 13.1 µM (inactive) | 22.8 µM (inactive) | 15.5 µM (inactive) | 14.6 µM (inactive) | 17.3 µM (inactive) | 18.7 µM (inactive) | 2.08 µM (inactive) | 15.8 µM (inactive) | 12.8 µM (inactive) | 25.4 µM (inactive) | 14 µM (inactive) | 0.461 µM (active) | 3.15 µM (inactive) | 16.1 | –
14 | CC(=O)OCC1OC(n2c(-c3ccccc3)c(/N=N/c3ccccc3)c(C)c(C#N)c2=S)C(OC(C)=O)C(OC(C)=O)C1OC(C)=O (stereo not drawn) | > 100 µM (inactive) | > 100 µM (inactive) | > 100 µM (inactive) | > 100 µM (inactive) | > 100 µM (inactive) | > 100 µM (inactive) | > 100 µM (inactive) | > 100 µM (inactive) | – | > 100 µM (inactive) | > 100 µM (inactive) | > 100 µM (inactive) | > 100 µM (inactive) | > 100 µM (inactive) | > 100 µM (inactive) | – | 12.3 µM (inactive) | – | > 100 | > 100 µM (inactive)
15 | O=C1NC(c2c(Cl)cccc2Cl)Nc2ccccc21 (stereo not drawn) | 94.4 µM (inactive) | 81.7 µM (inactive) | 71.1 µM (inactive) | 19.6 µM (inactive) | 30.5 µM (inactive) | 34.8 µM (inactive) | 65.6 µM (inactive) | 47.1 µM (inactive) | 85.7 µM (inactive) | > 100 µM (inactive) | 50.1 µM (inactive) | 30.5 µM (inactive) | 54.5 µM (inactive) | 14.1 µM (inactive) | 2.89 µM (inactive) | 47.1 µM (inactive) | > 100 µM (inactive) | 56 µM (inactive) | 49.7 | –

Source: ChEMBL document CHEMBL1201862, “PubChem BioAssay data set” (2004)
